Laboratory results from patent US12551482B2, “Aurora kinase inhibitors” (The Regents of the University of California, priority 2013, dated 2026).
Where two headings read alike, the source gives them in different places.

Columns and labels:
MKN45 = experiment: Cancer cell line profiling, Genomics of Drug Sensitivity Project
WM793B = experiment: as above; conditions: read-out: CD532 EC50 (uM)
5637 = experiment: as above; conditions: read-out: CD532 EC50 (uM)
ML-1 = experiment: as above; conditions: ML1, read-out: CD532 EC50 (uM)
NB12 = experiment: as above; conditions: read-out: CD532 EC50 (uM)
MYCN [1] = experiment: MYCN-amplified neuroblastoma xenografts, MYCN protein in tumors; type: in vivo; conditions: mice treated daily for 2 days with 60 mg/kg
Experimental: Mice were injected intraperitoneally as described. For determining tumor volume, for example in medulloblastoma model mice, mice were euthanized once maximum tumor length exceeded 2.0 cm, per IACUC protocol (IACUC, Institutional Animal Care and Use Committee).

SNU-81 = experiment: Cancer cell line profiling, Genomics of Drug Sensitivity Project; conditions: read-out: CD532 EC50 (uM)
tumor-derived cell lines = experiment: Screen of panel of tumor-derived, genetically characterized cell lines; type: cell-based
RVH-421 = experiment: Cancer cell line profiling, Genomics of Drug Sensitivity Project; conditions: Homo sapiens, RVH-421, read-out: CD532 EC50 (uM)
SNU-449 = experiment: as above; conditions: Homo sapiens, SNU-449, read-out: CD532 EC50 (uM)
DJM-1 = experiment: as above; conditions: read-out: CD532 EC50 (uM)
BFTC-909 = experiment: as above; conditions: Homo sapiens, BFTC-909, read-out: CD532 EC50 (uM)
IMR-5 = experiment: as above; conditions: Homo sapiens, IMR-5, read-out: CD532 EC50 (uM)
HSC-2 = experiment: as above; conditions: Homo sapiens, HSC-2, read-out: CD532 EC50 (uM)
MYCN [2] = experiment: Screen of Kelly MYCN-amplified cells, western blot for MYCN; type: cell-based; conditions: 1 μM, 24 hrs
Experimental: (§1) Neuroblastoma tumor cell lines were obtained from the University of California San Francisco Cell Culture Facility (Kelly, SK-N-BE2, and SH-EP). SMS-KCN, SHEP MYCN^wt and MYCN^T58A/S62A cells were obtained. All cells were grown in RPMI with 10% FBS. Neuroblastoma cells were harvested and lysed with Cell Signaling Lysis buffer+1% SDS, sonicated and supernatants boiled in LDS sample buffer (Invitrogen). Western blots were performed as described previously (Chanthery et al., 2012), with primary antibodies to MYCN (ab24193, Abcam), Histone H3, P-Histone H3 (S10), Aurora A (Cell signaling), and GAPDH (Millipore). Western blot quantitation performed with ImageJ software.
To test whether this panel of 32 putative conformation-disrupting Aurora A inhibitors would destabilize MYCN, initially Kelly MYCN-amplified neuroblastoma cells were treated with candidate inhibitors and MYCN protein was measured by western blot. Phosphorylation of Histone H3, a known substrate for Aurora A and B and a marker for mitosis, was also assessed. FIGS. 1B and 5 show decreased levels of both MYCN protein and p-Histone H3 in response to several members of the screening panel (quantitated in FIG. 1).

[3] = Pharmacokinetics of CD532 in mice; type: in vivo; conditions: mouse, serum, ip, 20 mg/kg, intraperitoneal injection
SK-MEL-30 = experiment: Cancer cell line profiling, Genomics of Drug Sensitivity Project; conditions: Homo sapiens, SK-MEL-30, read-out: CD532 EC50 (uM)
8505C = experiment: as above; conditions: Homo sapiens, read-out: CD532 EC50 (uM)
HO-1-N-1 = experiment: as above; conditions: read-out: CD532 EC50 (uM)
MYCN [4] = experiment: MYCN protein by immunoblot in SHEP cells expressing MYCN; type: cell-based
Experimental: as §1
MYCN is believed to be sequentially phosphorylated at S62/T58 before it is targeted for degradation by ubiquitination, and only phosphorylated, ubiquitinated MYCN is protected from degradation by Aurora A (Gustafson and Weiss, 2010; Otto et al., 2009).

MEL-HO = experiment: Cancer cell line profiling, Genomics of Drug Sensitivity Project; conditions: read-out: CD532 EC50 (uM)
SK-MEL-1 = experiment: as above; conditions: Homo sapiens, SK-MEL-1, read-out: CD532 EC50 (uM)
HTC-C3 = experiment: as above; conditions: Homo sapiens, HTC-C3, read-out: CD532 EC50 (uM)
COLO-800 = experiment: as above; conditions: Homo sapiens, COLO-800, read-out: CD532 EC50 (uM)
GI-ME-N = experiment: as above
WM-115 = experiment: as above; conditions: Homo sapiens, WM-115, read-out: CD532 EC50 (uM)

O=C(Nc1ccc(Nc2nccc(Nc3cc(C4CCCC4)[nH]n3)n2)cc1)Nc1cccc(C(F)(F)F)c1 [CD532, 1-(4-((4-((5-cyclopentyl-1H-pyrazol-3-yl)amino)pyrimidin-2-yl)amino)phenyl)-3-(3-(trifluoromethyl)phenyl)urea]
EC50 (MKN45; Homo sapiens, MKN-45, read-out: CD532 EC50 (uM), MKN45 cell line, Stomach): 0.456 µM
EC50 (MKN45; read-out: CD532 EC50, MKN45 cell line, Stomach): 0.26 µM
EC50 (WM793B): 0.705 µM
EC50 5637: 0.49 µM
EC50 (ML-1): 1.32 µM
EC50 (NB12): 0.293 µM
MYCN protein in tumors (MYCN [1]): decreased levels of MYCN protein
EC50 (SNU-81): 0.421 µM
susceptibility of MYCN amplified vs non-amplified cell lines (tumor-derived cell lines; Wilcoxon Rank Sum test): significantly more susceptible to CD532 than non-amplified lines
EC50 values across the panel (tumor-derived cell lines; most cell lines): nanomolar range
EC50 (RVH-421): 0.585 µM
EC50 (SNU-449): 12.1 µM
EC50 (DJM-1): 0.427 µM
EC50 (BFTC-909): 1.51 µM
EC50 (IMR-5): 0.0071 µM
EC50 (HSC-2): 2.15 µM
MYCN protein level (MYCN [2]): decreased levels of both MYCN and p-Histone H3 proteins
half-life [3]: ~1.5 h
AUC(0-t) ([3]; read-out: AUC0-24): 27 µM·h
EC50 (SK-MEL-30): 0.323 µM
EC50 (8505C): 0.662 µM
EC50 (HO-1-N-1): 1.67 µM
wild-type MYCN protein (MYCN [4]; SHEP cells expressing MYCNWT, 24 hrs, increasing concentrations (FIG. 12C)): dose-dependent decrease in wild-type MYCN protein
MYCNT58A/S62A protein (MYCN [4]; SHEP cells expressing non-phosphorylatable MYCNT58A/S62A, 24 hrs (FIG. 12C)): partially protected from degradation
EC50 (MEL-HO): 0.411 µM
EC50 (SK-MEL-1): 0.649 µM
EC50 (HTC-C3): 0.915 µM
EC50 (COLO-800): 0.302 µM
EC50 (GI-ME-N; read-out: CD532 EC50 (uM), GI-ME-N cell line, Nervous System): 0.428 µM
EC50 (GI-ME-N; read-out: CD532 EC50, GI-ME-N cell line, Nervous System): 0.812 µM
EC50 (WM-115): 0.412 µM
